Patent publication US12564638B2 (SHANGHAITECH UNIVERSITY, priority 2019, dated 2026)
Like-named read-outs stand apart in the source and are kept apart here.

Key:
[1] = system: HCC827 cells (EGFR Exon19 del, non-small cell lung cancer cells); assay: Cell viability assay (WST/CCK8), HCC827 cells; assay type: cell-based; details: Homo sapiens, HCC827, 72 h, HCC827 (Exon19 Del), 72 hours, read-out: IC50 (half inhibitory concentration)
Method in brief: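 Plated 3 000 cells/well in complete RPMI1640 the day before dosing; controls were DMSO (negative) and EGFR TKIs (positive).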

[2] = system: PC9 cells (EGFR Exon 19 del, non-small cell lung cancer cells); assay: Cell viability assay (WST/CCK8), PC9 cells; assay type: cell-based; details: Homo sapiens, PC-9, PC9 (Exon19 Del), 72 hours, read-out: IC50 (half inhibitory concentration)
From the text: The cell lines with abnormal EGFR expression used are as follows: • HCC827 cells (EGFR Exon19 del, non-small cell lung cancer cells); • PC9 cells (EGFR Exon 19 del, non-small cell lung cancer cells); • PC9BracA1 (EGFR Exon 19 del+T790M, non-small cell lung cancer cells) • H1975 (EGFR Exon T790M+L858R mutation, non-small cell lung cancer cell line) • BT474 cells (HER2 positive breast cancer cells)
All of the half inhibitory concentrations (IC50) of these compounds of the present invention were determined with WST reagent from Fuyuan Biotec Company. The specific experiment procedures are as follows: Cancer cells were planted in 96-well-plate at the density of 3 000 cells per well with 100 μL RPMI1640 completed culture medium. In the next day, compounds with indicated concentrations were added to the cells, DMSO was used as the negative control and the EGFR TKIs were used to treat cells as the positive groups. After 72 hours drug treatment, cell viability was measured by using the WST reagent following the instructions.
The cells were treated with the gradient concentration of these compounds (the maximum concentration: 10 μM; 3-fold dilution ratio, 10 concentration gradients) for 72 hours and then incubated with the WST (CCK8) reagent to determine the cell viability.

[3] = Table 6, canertinib-based compounds, WST
[4] = Table 4, gefitinib and sapitinib-based compounds, WST
[5] = Table 4, gefitinib-based compounds, WST

Row | IC50 ([1]; WST (CCK8)) [nM] | IC50 ([2]; WST (CCK8)) [nM] | SMILES | other results
1 | 15.7 | 23.3 | COc1cc2ncnc(Nc3ccc(F)c(Cl)c3)c2cc1NC(=O)/C=C/CN1CCN(C(=O)CSc2cccc3c2CN(C2CCC(=O)NC2=O)C3=O)CC1 (centres unmarked) [SIAIS219185, (E)-N-(4-((3-chloro-4-fluorophenyl)amino)-7-methoxyquinazolin-6-yl)-4-(4-(2-((2-(2,6-dioxopiperidin-3-yl)-1-oxoisoindolin-4-yl)thio)acetyl)piperazin-1-yl)but-2-enamide] | –
2 | 6 | 21.7 | COc1cc2ncnc(Nc3ccc(F)c(Cl)c3)c2cc1NC(=O)/C=C/CN1CCN(C(=O)CCSc2cccc3c2CN(C2CCC(=O)NC2=O)C3=O)CC1 (centres unmarked) [SIAIS219186, (E)-N-(4-((3-chloro-4-fluorophenyl)amino)-7-methoxyquinazolin-6-yl)-4-(4-(3-((2-(2,6-dioxopiperidin-3-yl)-1-oxoisoindolin-4-yl)thio)propanoyl)piperazin-1-yl)but-2-enamide] | –
3 | 6.7 | 33.3 | COc1cc2ncnc(Nc3ccc(F)c(Cl)c3)c2cc1NC(=O)/C=C/CN1CCN(C(=O)CCCSc2cccc3c2CN(C2CCC(=O)NC2=O)C3=O)CC1 (centres unmarked) [SIAIS219187, (E)-N-(4-((3-chloro-4-fluorophenyl)amino)-7-methoxyquinazolin-6-yl)-4-(4-(4-((2-(2,6-dioxopiperidin-3-yl)-1-oxoisoindolin-4-yl)thio)butanoyl)piperazin-1-yl)but-2-enamide] | –
4 | 3.1 | 25.1 | COc1cc2ncnc(Nc3ccc(F)c(Cl)c3)c2cc1NC(=O)/C=C/CN1CCN(C(=O)CCCCSc2cccc3c2CN(C2CCC(=O)NC2=O)C3=O)CC1 (centres unmarked) [SIAIS219188, (E)-N-(4-((3-chloro-4-fluorophenyl)amino)-7-methoxyquinazolin-6-yl)-4-(4-(5-((2-(2,6-dioxopiperidin-3-yl)-1-oxoisoindolin-4-yl)thio)pentanoyl)piperazin-1-yl)but-2-enamide] | –
5 | 3.8 | 9.2 | COc1cc2ncnc(Nc3ccc(F)c(Cl)c3)c2cc1NC(=O)/C=C/CN1CCN(C(=O)CCCCCSc2cccc3c2CN(C2CCC(=O)NC2=O)C3=O)CC1 (centres unmarked) [SIAIS219189, (E)-N-(4-((3-chloro-4-fluorophenyl)amino)-7-methoxyquinazolin-6-yl)-4-(4-(6-((2-(2,6-dioxopiperidin-3-yl)-1-oxoisoindolin-4-yl)thio)hexanoyl)piperazin-1-yl)but-2-enamide] | –
6 | 18.6 | 7.2 | COc1cc2ncnc(Nc3ccc(F)c(Cl)c3)c2cc1NC(=O)/C=C/CN1CCN(C(=O)CCCCCCSc2cccc3c2CN(C2CCC(=O)NC2=O)C3=O)CC1 (centres unmarked) [SIAIS219190, (E)-N-(4-((3-chloro-4-fluorophenyl)amino)-7-methoxyquinazolin-6-yl)-4-(4-(7-((2-(2,6-dioxopiperidin-3-yl)-1-oxoisoindolin-4-yl)thio)heptanoyl)piperazin-1-yl)but-2-enamide] | –
7 | 16.4 | 8.9 | COc1cc2ncnc(Nc3ccc(F)c(Cl)c3)c2cc1NC(=O)/C=C/CN1CCN(C(=O)COCCSc2cccc3c2C(=O)N(C2CCC(=O)NC2=O)C3=O)CC1 (centres unmarked) [SIAIS219192, (E)-N-(4-((3-chloro-4-fluorophenyl)amino)-7-methoxyquinazolin-6-yl)-4-(4-(2-(2-((2-(2,6-dioxopiperidin-3-yl)-1,3-dioxoisoindolin-4-yl)thio)ethoxy)acetyl)piperazin-1-yl)but-2-enamide] | –
8 | 2.2 | 43.6 | COc1cc2ncnc(Nc3ccc(F)c(Cl)c3)c2cc1NC(=O)/C=C/CN1CCN(C(=O)COCCSc2cccc3c2CN(C2CCC(=O)NC2=O)C3=O)CC1 (centres unmarked) [SIAIS219193, (E)-N-(4-((3-chloro-4-fluorophenyl)amino)-7-methoxyquinazolin-6-yl)-4-(4-(2-(2-((2-(2,6-dioxopiperidin-3-yl)-1-oxoisoindolin-4-yl)thio)ethoxy)acetyl)piperazin-1-yl)but-2-enamide] | –
9 | 23 | 167 | COc1cc2ncnc(Nc3ccc(F)c(Cl)c3)c2cc1NC(=O)/C=C/CN1CCN(C(=O)CSc2cccc3c2C(=O)N(C2CCC(=O)NC2=O)C3=O)CC1 (centres unmarked) [SIAIS249034, (E)-N-(4-((3-chloro-4-fluorophenyl)amino)-7-methoxyquinazolin-6-yl)-4-(4-(2-((2-(2,6-dioxopiperidin-3-yl)-1,3-dioxoisoindolin-4-yl)thio)acetyl)piperazin-1-yl)but-2-enamide] | –
10 | 10 | 56.5 | COc1cc2ncnc(Nc3ccc(F)c(Cl)c3)c2cc1NC(=O)/C=C/CN1CCN(C(=O)CCSc2cccc3c2C(=O)N(C2CCC(=O)NC2=O)C3=O)CC1 (centres unmarked) [SIAIS249035, (E)-N-(4-((3-chloro-4-fluorophenyl)amino)-7-methoxyquinazolin-6-yl)-4-(4-(3-((2-(2,6-dioxopiperidin-3-yl)-1,3-dioxoisoindolin-4-yl)thio)propanoyl)piperazin-1-yl)but-2-enamide] | –
11 | 8.1 | 47.7 | COc1cc2ncnc(Nc3ccc(F)c(Cl)c3)c2cc1NC(=O)/C=C/CN1CCN(C(=O)CCCSc2cccc3c2C(=O)N(C2CCC(=O)NC2=O)C3=O)CC1 (centres unmarked) [SIAIS249036, (E)-N-(4-((3-chloro-4-fluorophenyl)amino)-7-methoxyquinazolin-6-yl)-4-(4-(4-((2-(2,6-dioxopiperidin-3-yl)-1,3-dioxoisoindolin-4-yl)thio)butanoyl)piperazin-1-yl)but-2-enamide] | –

The next lines start with the molecule.

Row | SMILES | IC50 ([1]; WST (CCK8)) [nM] | IC50 ([2]; WST (CCK8)) [nM] | other results
12 | C=CC(=O)Nc1cc2c(Nc3ccc(F)c(Cl)c3)ncnc2cc1OCCCN1CCC(N2CCNCC2)CC1 [Caneritinib derivative B (SIAIS249183), N-(4-((3-chloro-4-fluorophenyl)amino)-7-(3-(4-(piperazin-1-yl)piperidin-1-yl)propoxy)quinazolin-6-yl)acrylamide] | – | – | IC50 [1, 3]: 15.9 nM; IC50 [2, 3]: 13.9 nM
13 | COc1cc2ncnc(Nc3ccc(F)c(Cl)c3)c2cc1NC(=O)/C=C/CN1CCNCC1 [Dacomitinib derivative A, (E)-N-(4-((3-chloro-4-fluorophenyl)amino)-7-methoxyquinazolin-6-yl)-4-(piperazin-1-yl)but-2-enamide] | 4 | 9.7 | –
14 | COc1cc2ncnc(Nc3ccc(F)c(Cl)c3)c2cc1OCCCN1CCN(C(=O)CCCCCSc2cccc3c2C(=O)N(C2CCC(=O)NC2=O)C3=O)CC1 (centres unmarked) [SIAIS184166, 4-((6-(4-(3-((4-((3-chloro-4-fluorophenyl)amino)-7-methoxyquinazolin-6-yl)oxy)propyl)piperazin-1-yl)-6-oxohexyl)thio)-2-(2,6-dioxopiperidin-3-yl)isoindoline-1,3-dione] | – | – | IC50 [1, 4]: 80 nM; IC50 [2, 5]: 692 nM
15 | COc1cc2ncnc(Nc3ccc(F)c(Cl)c3)c2cc1OCCCN1CCN(C(=O)COCCSc2cccc3c2C(=O)N(C2CCC(=O)NC2=O)C3=O)CC1 (centres unmarked) [SIAIS184168, 4-((2-(2-(4-(3-((4-((3-chloro-4-fluorophenyl)amino)-7-methoxyquinazolin-6-yl)oxy)propyl)piperazin-1-yl)-2-oxoethoxy)ethyl)thio)-2-(2,6-dioxopiperidin-3-yl)isoindoline-1,3-dione] | – | – | IC50 [1, 4]: 43 nM; IC50 [2, 5]: 317 nM
16 | COc1cc2ncnc(Nc3ccc(F)c(Cl)c3)c2cc1OCCCN1CCN(C(=O)COCCOCCOCCSc2cccc3c2C(=O)N(C2CCC(=O)NC2=O)C3=O)CC1 (centres unmarked) [SIAIS184169, 4-((2-(2-(2-(2-(4-(3-((4-((3-chloro-4-fluorophenyl)amino)-7-methoxyquinazolin-6-yl)oxy)propyl)piperazin-1-yl)-2-oxoethoxy)ethoxy)ethoxy)ethyl)thio)-2-(2,6-dioxopiperidin-3-yl)isoindoline-1,3-dione] | – | – | IC50 [1, 4]: 22 nM; IC50 [2, 5]: 318 nM
17 | COc1cc2ncnc(Nc3ccc(F)c(Cl)c3)c2cc1NC(=O)/C=C/CN1CCN(C(=O)CNc2cccc3c2C(=O)N(C2CCC(=O)NC2=O)C3=O)CC1 (centres unmarked) [SIAIS219194, (E)-N-(4-((3-chloro-4-fluorophenyl)amino)-7-methoxyquinazolin-6-yl)-4-(4-(2-((2-(2,6-dioxopiperidin-3-yl)-1,3-dioxoisoindolin-4-yl)amino)acetyl)piperazin-1-yl)but-2-enamide] | 5.3 | 4 | –
18 | CNC(=O)CN1CCC(Oc2cc3c(Nc4cccc(Cl)c4F)ncnc3cc2OC)CC1 [Sapitinib (AZD8931), sapitinib, reference compound] | – | – | IC50 [1, 4]: 0.4 nM
